# Reference: patent publication US9567347B2, “Use of small molecule inhibitors targeting the interaction between RAC GTPase and p67(phox)” (CHILDREN'S HOSPITAL MEDICAL CENTER, priority 2012, dated 2017)
# Entries after “also recorded” stand apart in the source; their conditions may differ.
# What was measured:
# NOX4 = target: T1, NOX4 (Homo sapiens, UniProt Q9NPH5); assay: NOX4 mediated ROS production, luminol chemiluminescence with HRP; type: cell-based, mouse; conditions: 10 μM, 30 min
# T1 construct: expressed in transfected cells; host or cells: primary mouse neutrophils (C57Bl/6 bone marrow), Amaxa nucleofection
# T1 sequence (Q9NPH5 1-578): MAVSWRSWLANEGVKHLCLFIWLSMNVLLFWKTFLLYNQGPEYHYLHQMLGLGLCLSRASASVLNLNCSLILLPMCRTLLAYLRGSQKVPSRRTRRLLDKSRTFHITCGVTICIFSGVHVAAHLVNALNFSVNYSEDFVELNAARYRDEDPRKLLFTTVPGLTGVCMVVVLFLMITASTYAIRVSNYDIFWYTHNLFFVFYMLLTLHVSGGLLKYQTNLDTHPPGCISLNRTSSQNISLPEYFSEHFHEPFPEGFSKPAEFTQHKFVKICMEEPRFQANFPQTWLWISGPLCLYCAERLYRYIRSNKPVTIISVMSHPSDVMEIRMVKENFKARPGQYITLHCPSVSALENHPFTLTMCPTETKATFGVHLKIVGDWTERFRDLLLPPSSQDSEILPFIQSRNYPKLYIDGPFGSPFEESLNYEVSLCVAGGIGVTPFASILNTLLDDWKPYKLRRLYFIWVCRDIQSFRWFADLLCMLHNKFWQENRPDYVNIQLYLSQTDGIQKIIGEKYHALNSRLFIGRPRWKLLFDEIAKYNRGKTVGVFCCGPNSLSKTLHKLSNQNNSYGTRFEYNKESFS
# T1 sequence (Q61462 1-192 partner): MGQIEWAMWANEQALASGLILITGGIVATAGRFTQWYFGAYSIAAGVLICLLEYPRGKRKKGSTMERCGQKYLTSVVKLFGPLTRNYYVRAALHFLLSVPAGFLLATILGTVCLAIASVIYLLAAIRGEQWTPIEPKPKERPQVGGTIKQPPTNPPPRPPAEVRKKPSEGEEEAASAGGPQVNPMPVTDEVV
# Protocol: Primary mouse neutrophils were suspended in 100 μl NucleofectorR solution with 10 μg plasmid pCDNA3-NOX4 encoding NOX4 or mock vector. Cells were transfected using a Cell Line V NucleofactorTMR kit (Amaxa Biosystem, Amaxa Inc.) and the NucleofectorTM program Y-001. Cells were recovered at 37° C. for 2 hours and subjected to the luminol chemiluminescence assay using 10 μM L012 and HRP (0.005 U·mL^−1) to record ROS produced by NOX4 expression.
# Phox-I1 was then applied to primary murine neutrophils expressing the constitutively active NOX4. […] To further rule out that Phox-I1 and Phox-I2 may simply act as scavengers of ROS, dHL-60 cells were pre-stimulated with fMLP for 30 min prior to treatment with Phox-I1 or Phox-I2.
# [1] = tested on: PMA-induced ROS production in human neutrophils; assay: luminol chemiluminescence assay of PMA induced ROS production; type: cell-based
# Protocol: Human neutrophils (2×10^5) were stimulated in HBSS supplemented with 0.1% BSA, 1 mM Ca2+, 1 mM Mg2+ and with fMLP (10 μM), PMA (300 nM) or glucose oxidase (200 mU/ml) for 30 min in the presence of 10 μM [8-amino-5-chloro-7-phenylpyrido[3,4-d]pyridazine-1,4(2H,3H)dione] (L012).
# Chemiluminescence was measured using GloMax®-96 Microplate Luminometer (Promega) (Tarpey et al., (2004) Am J Physiol Regul Integr Comp Physiol 286: R431-R444, hereby incorporated by reference in its entirety). The generation of […] by the xanthine/xanthine oxidase was performed in PBS supplemented with xanthine oxidase (0.004 U), HRP (0.005 U·mL^−1) and L012, following the protocol described in Wind et al., (2010) Br J Pharmacol. 161, 885-898, hereby incorporated by reference in its entirety. The reaction was started by the addition of xanthine (0.5 mM).
# reconstituted NOX2 = target: T2, reconstituted NOX2 (Homo sapiens, UniProt P19878); assay: cell-free superoxide production assay; type: biochemical; conditions: reconstitution conditions, FIG. 7
# T2 sequence (P19878 1-526): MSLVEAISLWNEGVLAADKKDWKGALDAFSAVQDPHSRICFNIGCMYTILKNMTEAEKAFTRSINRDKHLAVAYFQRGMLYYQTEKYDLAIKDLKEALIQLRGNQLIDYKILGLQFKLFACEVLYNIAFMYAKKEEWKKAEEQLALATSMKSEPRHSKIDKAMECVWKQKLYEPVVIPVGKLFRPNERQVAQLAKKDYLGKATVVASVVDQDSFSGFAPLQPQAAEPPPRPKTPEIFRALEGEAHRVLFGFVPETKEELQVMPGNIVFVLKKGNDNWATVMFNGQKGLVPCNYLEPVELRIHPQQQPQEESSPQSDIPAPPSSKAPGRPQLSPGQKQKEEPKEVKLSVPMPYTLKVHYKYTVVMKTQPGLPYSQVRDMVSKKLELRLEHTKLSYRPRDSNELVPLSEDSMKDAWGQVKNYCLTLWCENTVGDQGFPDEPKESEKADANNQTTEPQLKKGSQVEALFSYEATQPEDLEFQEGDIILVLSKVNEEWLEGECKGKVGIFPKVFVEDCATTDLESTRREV
# Protocol: In order to complement the in silico and cellular results, Phox-I1 and Phox-I2 were tested in cell-free superoxide production assays. Phox-I2 was added to p67 phox (50 nM) in a total volume of 200 μl, and incubated for 30 min at room temperature. A mixture of solubilized macrophage membrane (5 nM cytochrome b 558 heme), p47 phox (50 nM), and Rac1 GMPPNP (nonprenylated) (50 nm), were added. Lithium dodecyl sulfate (LiDS) was added at 130 μM and incubated for 90 sec at room temperature. NADPH was then added (238 μM) and superoxide production measured. In this system, a turnover of 58.88 mol superoxide/sec/mol cytochrome b558 heme was measured. The results were calculated by taking superoxide production in the absence of Phox-I2 as 100% and values obtained with Phox-I2 were expressed as % inhibition. The mean data represent those from six separate experiments.
NOX4 ROS production (NOX4),SMILES,effect on PMA-induced ROS production [1],Rac1-GMPPNP induced superoxide burst (reconstituted NOX2)
unresponsive,COc1ccc2c(c1)C1C=C(c3ccccc3)NN1C(c1cccc([N+](=O)[O-])c1)O2 (stereo not drawn) [Phox-I1],did not affect,–
–,O=[N+]([O-])c1cccc(C2Nc3ccc([N+](=O)[O-])cc3C3C=CCC32)c1 (stereo not drawn) [Phox-I2],–,dose-dependent inhibition; also recorded: dose-dependently inhibit
